Measured values taken from patent publication US10105400B2, “Composition of chicken liver hydrolysates and method for improving alcohol metabolism, as well as preventing and treating liver fibrosis” (NATIONAL TAIWAN UNIVERSITY, priority 2016, dated 2018).
Marks after values point to notes of the source that are not given here.

What was measured:
[1] = Relative sizes of organs and tissues, TAA liver fibrosis model; type: in vivo, Wistar rats
Method: (§1) Forty male Wistar rats of 5-week old were purchased from BioLASCO Taiwan Co., Ltd. (Taipei, Taiwan). Two rats were housed in one cage in an animal room at 22±2° C. with a 12/12 h light-dark cycle. After one week of acclimation, the mice were randomly divided into 5 groups:
(§2) (b) The thioacetamide group (The TAA group): intraperitoneal injection of 100 mg TAA/kg-body weight (bw) in 0.3 mL ddH2O and administration of 0.5 mL ddH2O by oral gavage;
(§3) (c) The composition of the chicken liver hydrolysates with low dosage (The CLH-L group): intraperitoneal injection of 100 mg TAA/kg-bw in 0.3 mL ddH2O and administration of 200 mg/kg-bw CLH in 0.5 mL ddH2O by oral gavage;
(§4) (d) The composition of the chicken liver hydrolysates with high dosage (The CLH-H group): intraperitoneal injection of 100 mg TAA/kg-bw in 0.3 mL ddH2O and administration of 600 mg/kg-bw CLH in 0.5 mL ddH2O by oral gavage; and (e) The carnosine group (The CNS group): intraperitoneal injection of 100 mg TAA/kg-bw in 0.3 mL ddH2O and administration of 200 mg/kg-bw carnosine in 0.5 mL ddH2O by oral gavage;
(§5) The experiment lasted for 10 weeks. The rats were injected with ddH2O or TAA intraperitoneally once a week and administered of ddH2O, the composition of the chicken liver hydrolysates or carnosine every day. One kilogram of the chow diet comprises 487 g carbohydrate, 239 g protein, 50 g fat, 51 g fibre and 70 g ash (Laboratory Rodent Diet 5001, PMI Nutrition International/Purina Mills LLC, Richmond, Ind., USA). All rats were fasted overnight before euthanized at the last day of experiment, the organs and the tissues were collected and weighted, and stored at −80° C. for further analysis.
(§6) The experiment was conducted by a complete randomized design. The raw data was expressed as “mean±SEM”. The data was analyzed by analysis of variance (ANOVA) and Fisher's Least Significant Different (LSD) test was used to distinguish significant differences among groups. All statistical analysis of the data was performed by SAS9.2 software (SAS Institute Inc, Cary, N.C., USA). If there is no significant difference between two groups, these groups werelabeled with one identical letter.

[2] = tested on: collagen; assay: Collagen deposition in livers (Sirius red stain, collagen kit), TAA model; type: in vivo, Wistar rats
Method: as §1, §2
(c) The composition of the chicken liver hydrolysates with low dosage (The CLH-L group): intraperitoneal injection of 100 mg TAA/kg-bw in 0.3 mL ddH2O and administration of 200 mg/kg-bw CLH in 0.5 mL ddH2O by oral gavage; […]
(§7) The experiment was conducted by a complete randomized design. The raw data was expressed as “mean±SEM”. The data was analyzed by analysis of variance (ANOVA) and Fisher's Least Significant Different (LSD) test was used to distinguish significant differences among groups. […]
Sirius red dye can bind to the helical structure of the collagen, and thus the Sirius red stain assay can be used to examine the deposition of collagen in livers. Furthermore, liver collagen levels of the mice are also determined by using commercial kits (Chondres Inc., Redmond, Wash., USA). […] The collagen content in the sample is calculated by using a standard curve plotted by bovine Type I collagen and expressed as μg/mg-protein. […]

[3] = tested on: thioacetamide (TAA)-treated mice; assay: Biochemical indexes of liver in sera, TAA liver fibrosis model; type: in vivo, Wistar rats; settings: serum; CNS group: 200 mg/kg-bw carnosine oral gavage daily, 10 weeks, TAA 100 mg/kg-bw i.p.
Method: as §1, §2, §3, §4, §5, §6

[4] = tested on: thioacetamide (TAA)-treated; assay: as above; type: in vivo, Wistar rats; settings: serum; CNS group: 200 mg/kg-bw carnosine oral gavage daily, 10 weeks, TAA 100 mg/kg-bw i.p.
Method: as §1, §2, §3, §4, §5, §6

[5] = Body weight and feed efficiency, thioacetamide (TAA) liver fibrosis model; type: in vivo, Wistar rats; settings: CNS group: 200 mg/kg-bw carnosine oral gavage daily, 10 weeks, TAA 100 mg/kg-bw i.p.
Method: as §1
(a) The control group (The CON group): intraperitoneal injection of 0.3 mL normal saline, and administration of 0.5 mL ddH2O by oral gavage;
as §2, §3, §4, §5, §7

[6] = Body weight, food intake and relative sizes of organs and tissues of mice fed alcohol liquid diet; type: in vivo, C57/BL/6J (B6) mice; settings: SLM group: 150 mg/kg-bw silymarin oral gavage, 8 weeks, ethanol diet
Method: (§8) Forty eight male C57/BL/6J (B6) mice of 8-week old were purchased from the Laboratory Animal Center of National Taiwan University. The body weight of these B6 mice were approximately 19 g to 21 g. Two mice were housed in one cage in an animal room at 22±2° C. with a 12/12 hr light-dark cycle. After one week of acclimation, the mice were randomly divided into 6 groups:
(a) The control group (the CON group): administered with the control liquid diet and 0.2 mL ddH2O by oral gavage.
(b) The ethanol group (the EtOH group): administered with the Lieber-DeCarli regular ethanol diet and 0.2 mL ddH2O by oral gavage.
(c) The composition of the chicken liver hydrolysates with low dosage (The CLH-L group): administered with the Lieber-DeCarli regular ethanol diet and 80 mg/kg-body weight (bw) of the composition of the chicken liver hydrolysates in 0.2 mL ddH2O by oral gavage.
(d) The composition of the chicken liver hydrolysates with medium dossage (The CLH-M group): administered with the Lieber-DeCarli regular ethanol diet and 320 mg/kg-bw of the composition of the chicken liver hydrolysates CLH in 0.2 mL ddH2O by oral gavage.
(e) The composition of the chicken liver hydrolysates with high dosage (The CLH-H group): administered with the Lieber-DeCarli regular ethanol diet and 1280 mg/kg-bw of the composition of the chicken liver hydrolysates in 0.2 mL ddH2O by oral gavage.
(§9) (f) The silymarin group (The SLM group): administered with the Lieber-DeCarli regular ethanol diet and 150 mg/kg-bw of silymarin in 0.2 mL ddH2O by oral gavage.
The animal experiment lasted for 8 weeks; the body weight of each mouse was recorded at the beginning and the end of the experiment. The daily liquid feed (mL) intakes as a food intake of each mouse was calculated. Mice were sacrificed after 8 weeks and the blood, heart, kidney, epididymal fat tissue, and perirenal fat tissue were all collected, weighted and then stored at −80° C. for further analysis.
The experiment was conducted by a complete randomized design. The raw data was presented as “mean±standard error of the mean (SEM)”. The data was analyzed by one way-analysis of variance (ANOVA) and Fisher's Least Significant Different test to distinguish significant differences among groups. All statistical analysis of data was performed by SAS9.2 software (SAS Institute Inc, Cary, N.C., USA). If there is no significant difference between two groups, these groups were labeled with one identical letter.

[7] = tested on: ABTS+ free radical; assay: Trolox equivalent antioxidant capacity (TEAC) of sera and livers, alcohol liquid diet mice; type: in vivo, C57/BL/6J (B6) mice; settings: SLM group: 150 mg/kg-bw silymarin oral gavage, 8 weeks, ethanol diet
Method: as §8, with “groups: […]” for “groups:”
as §9
(§10) The animal experiment lasted for 8 weeks; the body weight of each mouse was recorded at the beginning and the end of the experiment. The daily liquid feed (mL) intakes as a food intake of each mouse was calculated. […]
(§11) The experiment was conducted by a complete randomized design. […] The data was analyzed by one way-analysis of variance (ANOVA) and Fisher's Least Significant Different test to distinguish significant differences among groups. […]
(§12) To evaluate the antioxidative ability of the composition of the chicken liver hydrolysates, the ABTS^+ free radical clearing ability is tested and represented as trolox equivalent antioxidant capacity (TEAC). The lipid peroxidation is also determined by thiobarbituric acid reactive substance (TBARS) value.

[8] = tested on: lipid peroxidation; assay: Thiobarbituric acid reactive substance (TBARS) value of sera and livers, alcohol liquid diet mice; type: in vivo, C57/BL/6J (B6) mice; settings: SLM group: 150 mg/kg-bw silymarin oral gavage, 8 weeks, ethanol diet
Method: as §8, with “groups: […]” for “groups:”
as §9, §10, §11, §12

[9] = CNS group: 200 mg/kg-bw carnosine oral gavage daily, 10 weeks, TAA 100 mg/kg-bw i.p.

With `NCCC(=O)N[C@@H](Cc1cnc[nH]1)C(=O)O` [CNS, carnosine] as the compound, how does the “Relative size Heart” value [1, 9] read?
Its value is 0.31 ± 0.01^a g/100 g-bw.

What about the “Relative size Kidney” value [1, 9] of the same compound?
Its value is 0.74 ± 0.01^a g/100 g-bw.

What about the “Relative size Liver” value [1, 9] of the same compound?
Its value is 4.14 ± 0.09^a g/100 g-bw.

What about the “Relative size Perirenal fat” value [1, 9] of the same compound?
Its value is 1.47 ± 0.11^a g/100 g-bw.

And the “Relative size Spleen” value [1, 9]?
Its value is 0.31 ± 0.02^a g/100 g-bw.

And the “relative sizes of liver, kidney and spleen” value ([1]; carnosine 200 mg/kg-bw vs TAA group, p>0.05)?
The value was “does not decrease”.

What about the liver collagen content ([2]; CNS group (carnosine 200 mg/kg-bw) compared to TAA group, FIG. 7(B)) of the same compound?
Its liver collagen content is “significantly decreased”.

What about the “collagen deposition in livers (Sirius red stain)” value ([2]; CNS group (carnosine 200 mg/kg-bw) vs TAA group, FIG. 7(A)) of the same compound?
Its value is “remarkably decreased”.

And the AST [3]?
Its AST is 211.00 ± 24.57^b U/L.

What about the Blood urea nitrogen [3] of the same compound?
The Blood urea nitrogen was 15.4 ± 0.89 mg/dL.

And the Total cholesterol [3]?
Its Total cholesterol is 52.38 ± 3.53^a mg/dL.

What about the Total protein [3] of the same compound?
Its Total protein is 4.26 ± 0.24^b g/dL.

And the Triglyceride [3]?
The Triglyceride was 33.25 ± 3.19^b mg/dL.

And the ALT [4]?
The ALT was 63.88 ± 5.86^b U/L.

And the Feed efficiency [5]?
The Feed efficiency was 8.89 ± 0.33^b %.

And the Final body weight [5]?
Its Final body weight is 380.61 ± 10.47^b g.

What about the Weight increase [5] of the same compound?
Its Weight increase is 163.99 ± 7.63^a g.

With `COc1cc(C2Oc3cc([C@H]4Oc5cc(O)cc(O)c5C(=O)[C@@H]4O)ccc3OC2CO)ccc1O` (stereo partly drawn) [SLM, silymarin] as the compound, how does the “Relative size Epididymal fat tissue” value [6] read?
The value was 1.68 ± 0.15^bc g/100 g-bw.

What about the “Relative size Heart” value [6] of the same compound?
Its value is 0.45 ± 0.01^ab g/100 g-bw.

And the “Relative size Kidney” value [6]?
Its value is 1.19 ± 0.04^ab g/100 g-bw.

And the “Relative size Liver” value [6]?
Its value is 4.45 ± 0.06^a g/100 g-bw.

What about the “Relative size Perirenal fat tissue” value [6] of the same compound?
The value was 0.37 ± 0.04^b g/100 g-bw.

What about the “Relative size Spleen” value [6] of the same compound?
Its value is 0.18 ± 0.01^b g/100 g-bw.

And the “TEAC Liver” value [7]?
Its value is 294.16 ± 14.82^a nmole/mg-protein.

And the “TEAC Serum” value [7]?
Its value is 4.48 ± 0.18^b nmole/mL.

And the “TBARS Liver” value [8]?
The value was 0.64 ± 0.12^ab nmole MDA eq./mg-protein.

And the “TBARS Serum” value [8]?
The value was 52.62 ± 2.26^bc nmole MDA eq./mL.
